Measurements taken from US20240122182A1, “PESTICIDALLY ACTIVE HETEROCYCLIC DERIVATIVES WITH SULFUR CONTAINING SUBSTITUENTS” (SYNGENTA CROP PROTECTION AG, priority 2021, published 2024).

Assays:
Assay type in all cases: in vivo
[1] = tested on: Euschistus heros (Neotropical Brown Stink Bug); experiment: Activity against Euschistus heros (neotropical brown stink bug), soybean leaves sprayed; details: 120 h, application rate of 200 ppm, N2 nymphs, 5 days after infestation, read-out: effect in at least one of the two categories (mortality or growth inhibition)
Protocol: Soybean leaves on agar in 24-well microtiter plates were sprayed with aqueous test solutions prepared from 10′000 ppm DMSO stock solutions. After drying the leaves were infested with N2 nymphs. The samples were assessed for mortality and growth inhibition in comparison to untreated samples 5 days after infestation.

[2] = tested on: Carpocapsa (Cydia) Pomonella (Codling Moth); experiment: Activity against Carpocapsa (Cydia) pomonella (codling moth), larvicide, feeding/contact; details: 336 h, application rate of 12.5 ppm, L1 larvae, 14 days after infestation, read-out: effect in at least one of the two categories (mortality or growth inhibition)
Protocol: Diet cubes coated with paraffin were sprayed with diluted test solutions in an application chamber. After drying off the treated cubes (10 replicates) were infested with 1 L1 larvae. Samples were incubated at 26-27° C. and checked 14 days after infestation for mortality and growth inhibition. The following compounds gave an effect of at least 80% in at least one of the two categories (mortality or growth inhibition) at an application rate of 12.5 ppm: P1, P2, P3, P5, P9, P10, P11, P12, P14, P17, P19, P20, P21, P23, P24, P30, P31.

[3] = tested on: Nilaparvata lugens (Brown Plant Hopper); experiment: Activity against Nilaparvata lugens (brown plant hopper), larvicide, systemic into water; details: 168 h, application rate of 12.5 ppm, N3 nymphs, 7 days after infestation
Protocol: Larvicide, systemic into water Rice plants cultivated in a nutritive solution were treated with the diluted test solutions into nourishing cultivation system. 1 day after application plants were infested with ˜20 N3 nymphs. 7 days after infestation samples were assessed for mortality and growth regulation.

[4] = tested on: Myzus persicae (Green Peach Aphid); experiment: Activity against Myzus persicae (green peach aphid), feeding/contact activity; details: 144 h, application rate of 200 ppm, mixed ages, 6 days after infestation
Protocol: Sunflower leaf discs were placed onto agar in a 24-well microtiter plate and sprayed with aqueous test solutions prepared from 10′000 ppm DMSO stock solutions. After drying, the leaf discs were infested with an aphid population of mixed ages. The samples were assessed for mortality 6 days after infestation.

[5] = tested on: Plutella xylostella (Diamond Back Moth); experiment: Activity against Plutella xylostella (diamond back moth), artificial diet; details: 192 h, application rate of 200 ppm, eggs, 8 days after infestation, read-out: effect in at least one of the two categories (mortality or growth inhibition)
Protocol: 24-well microtiter plates with artificial diet were treated with aqueous test solutions prepared from 10′000 ppm DMSO stock solutions by pipetting. After drying, Plutella eggs were pipetted through a plastic stencil onto a gel blotting paper and the plate was closed with it. The samples were assessed for mortality and growth inhibition in comparison to untreated samples 8 days after infestation.

[6] = tested on: Chilo suppressalis (Striped Rice Stemborer); experiment: Activity against Chilo suppressalis (striped rice stemborer), artificial diet; details: 144 h, application rate of 200 ppm, L2 larvae, 6 days after infestation, read-out: control (mortality, anti-feeding effect, growth inhibition)
Protocol: 24-well microtiter plates with artificial diet were treated with aqueous test solutions prepared from 10′000 ppm DMSO stock solutions by pipetting. After drying, the plates were infested with L2 larvae (6-8 per well). The samples were assessed for mortality, anti-feeding effect, and growth inhibition in comparison to untreated samples 6 days after infestation. Control of Chilo suppressalis by a test sample is given when at least one of the categories mortality, anti-feedant effect, and growth inhibition is higher than the untreated sample.

[7] = tested on: Diabrotica Balteata (Corn Root Worm); experiment: Activity against Diabrotica balteata (corn root worm), maize sprouts sprayed; details: 96 h, application rate of 200 ppm, L2 larvae, 4 days after infestation, read-out: effect in at least one of the two categories (mortality or growth inhibition)
Protocol: Maize sprouts placed onto an agar layer in 24-well microtiter plates were treated with aqueous test solutions prepared from 10′000 ppm DMSO stock solutions by spraying. After drying, the plates were infested with L2 larvae (6 to 10 per well). The samples were assessed for mortality and growth inhibition in comparison to untreated samples 4 days after infestation.

[8] = tested on: Spodoptera littoralis (Egyptian Cotton Leaf Worm); experiment: Activity against Spodoptera littoralis (Egyptian cotton leaf worm), cotton leaf discs sprayed; details: foliar, 72 h, application rate of 200 ppm, L1 larvae, 3 days after infestation, read-out: control (mortality, anti-feeding effect, growth inhibition)
Protocol: Cotton leaf discs were placed onto agar in 24-well microtiter plates and sprayed with aqueous test solutions prepared from 10′000 ppm DMSO stock solutions. After drying the leaf discs were infested with five L1 larvae. The samples were assessed for mortality, anti-feeding effect, and growth inhibition in comparison to untreated samples 3 days after infestation. Control of Spodoptera littoralis by a test sample is given when at least one of the categories mortality, anti-feedant effect, and growth inhibition is higher than the untreated sample.

[9] = tested on: Myzus persicae (Green Peach Aphid); experiment: Activity against Myzus persicae (green peach aphid), systemic activity; details: 144 h, test rate of 24 ppm, pea seedling roots in test solution, 6 days
Protocol: Roots of pea seedlings infested with an aphid population of mixed ages were placed directly into aqueous test solutions prepared from 10′000 DMSO stock solutions. The samples were assessed for mortality 6 days after placing seedlings into test solutions.

[10] = tested on: Bemisia tabaci (Cotton White Fly); experiment: Activity against Bemisia tabaci (cotton white fly), cotton leaf discs sprayed; details: foliar, 144 h, application rate of 200 ppm, adult white flies, 6 days after incubation
Protocol: Cotton leaf discs were placed on agar in 24-well microtiter plates and sprayed with aqueous test solutions prepared from 10′000 ppm DMSO stock solutions. After drying the leaf discs were infested with adult white flies. The samples were checked for mortality 6 days after incubation.

CCS(=O)(=O)c1cc(OCC(C)(F)F)cnc1-c1cc2c(cn1)N(CC(F)(F)C(F)(F)F)C(=O)CC2 [P24, 6-[5-(2,2-difluoropropoxy)-3-ethylsulfonyl-2-pyridyl]-1-(2,2,3,3,3-pentafluoropropyl)-3,4-dihydro-1,7-naphthyridin-2-one]
≥ 80%: percent effect (mortality or growth inhibition) at 200 ppm [1] | percent effect (mortality or growth inhibition) at 12.5 ppm [2] | mortality at 12.5 ppm [3] | mortality at 200 ppm [4] | percent effect (mortality or growth inhibition) at 200 ppm [5] | mortality at 200 ppm [6] | percent effect (mortality or growth inhibition) at 200 ppm [7] | mortality at 200 ppm [8]

CCS(=O)(=O)c1cc(OC(C)(C)C#N)cnc1-c1cc2c(cn1)N(CC(F)(F)C(F)(F)F)C(=O)CC2 [P20, 2-[[5-ethylsulfonyl-6-[2-oxo-1-(2,2,3,3,3-pentafluoropropyl)-3,4-dihydro-1,7-naphthyridin-6-yl]-3-pyridyl]oxy]-2-methyl-propanenitrile]
≥ 80%: percent effect (mortality or growth inhibition) at 200 ppm [1] | percent effect (mortality or growth inhibition) at 12.5 ppm [2] | mortality at 12.5 ppm [3] | mortality at 200 ppm [4] | percent effect (mortality or growth inhibition) at 200 ppm [5] | mortality at 200 ppm [6] | percent effect (mortality or growth inhibition) at 200 ppm [7] | mortality at 200 ppm [8]

CCS(=O)(=O)c1cc(C2(C#N)CC2)cnc1-c1cc2c(cn1)N(CC(F)(F)F)C(=O)OC2 [P34, 1-[5-ethylsulfonyl-6-[2-oxo-1-(2,2,2-trifluoroethyl)-4H-pyrido[3,4-d][1,3]oxazin-6-yl]-3-pyridyl]cyclopropanecarbonitrile]
≥ 80%: mortality at 200 ppm [4] | percent effect (mortality or growth inhibition) at 200 ppm [5] | mortality at 24 ppm [9] | percent effect (mortality or growth inhibition) at 200 ppm [7]

CCS(=O)(=O)c1ccc(-c2ncccn2)nc1-c1cc2c(cn1)N(CC(F)(F)C(F)(F)F)C(=O)CC2 [P22, 6-(3-ethylsulfonyl-6-pyrimidin-2-yl-2-pyridyl)-1-(2,2,3,3,3-pentafluoropropyl)-3,4-dihydro-1,7-naphthyridin-2-one]
≥ 80%: percent effect (mortality or growth inhibition) at 200 ppm [1] | mortality at 200 ppm [4] | percent effect (mortality or growth inhibition) at 200 ppm [5] | mortality at 24 ppm [9] | mortality at 200 ppm [6] | percent effect (mortality or growth inhibition) at 200 ppm [7] | mortality at 200 ppm [8]

CCS(=O)(=O)c1cc(N(C)C(C)=O)cnc1-c1cc2c(cn1)N(CC(F)(F)C(F)(F)F)C(=O)CC2 [P8, N-[5-ethylsulfonyl-6-[2-oxo-1-(2,2,3,3,3-pentafluoropropyl)-3,4-dihydro-1,7-naphthyridin-6-yl]-3-pyridyl]-N-methyl-acetamide]
≥ 80%: percent effect (mortality or growth inhibition) at 200 ppm [1] | mortality at 200 ppm [4] | percent effect (mortality or growth inhibition) at 200 ppm [5] | mortality at 24 ppm [9] | mortality at 200 ppm [6] | mortality at 200 ppm [8]

CCS(=O)(=O)c1cc(C(F)(F)F)cnc1-c1cc2c(cn1)N(CC(F)(F)C(F)(F)F)C(=O)OC2 [P10, 6-[3-ethylsulfonyl-5-(trifluoromethyl)-2-pyridyl]-1-(2,2,3,3,3-pentafluoropropyl)-4H-pyrido[3,4-d][1,3]oxazin-2-one]
≥ 80%: percent effect (mortality or growth inhibition) at 12.5 ppm [2] | mortality at 12.5 ppm [3] | mortality at 200 ppm [4] | percent effect (mortality or growth inhibition) at 200 ppm [5] | mortality at 200 ppm [6] | percent effect (mortality or growth inhibition) at 200 ppm [7] | mortality at 200 ppm [8]

CCS(=O)(=O)c1cc(C(C)(C)C#N)cnc1-c1cc2c(cn1)N(CC(F)(F)C(F)(F)F)C(=O)OC2 [P15, 2-[5-ethylsulfonyl-6-[2-oxo-1-(2,2,3,3,3-pentafluoropropyl)-4H-pyrido[3,4-d][1,3]oxazin-6-yl]-3-pyridyl]-2-methyl-propanenitrile]
≥ 80%: percent effect (mortality or growth inhibition) at 200 ppm [1] | mortality at 200 ppm [4] | percent effect (mortality or growth inhibition) at 200 ppm [5] | mortality at 24 ppm [9] | mortality at 200 ppm [6] | percent effect (mortality or growth inhibition) at 200 ppm [7] | mortality at 200 ppm [8]

CCS(=O)(=O)c1cccnc1-c1cc2c(cn1)N(CC(F)(F)C(F)(F)F)C(=O)CC2 [P1, 6-(3-ethylsulfonyl-2-pyridyl)-1-(2,2,3,3,3-pentafluoropropyl)-3,4-dihydro-1,7-naphthyridin-2-one]
≥ 80%: percent effect (mortality or growth inhibition) at 200 ppm [1] | percent effect (mortality or growth inhibition) at 12.5 ppm [2] | mortality at 12.5 ppm [3] | mortality at 200 ppm [4] | percent effect (mortality or growth inhibition) at 200 ppm [5] | mortality at 24 ppm [9] | mortality at 200 ppm [6] | percent effect (mortality or growth inhibition) at 200 ppm [7] | mortality at 200 ppm [8]

CCS(=O)(=O)c1cc(C2(C#N)CC2)cnc1-c1cc2c(cn1)N(CC(F)(F)C(F)(F)F)C(=O)OC2 [P3, 1-[5-ethylsulfonyl-6-[2-oxo-1-(2,2,3,3,3-pentafluoropropyl)-4H-pyrido[3,4-d][1,3]oxazin-6-yl]-3-pyridyl]cyclopropanecarbonitrile]
≥ 80%: percent effect (mortality or growth inhibition) at 200 ppm [1] | mortality at 200 ppm [10] | percent effect (mortality or growth inhibition) at 12.5 ppm [2] | mortality at 12.5 ppm [3] | mortality at 200 ppm [4] | percent effect (mortality or growth inhibition) at 200 ppm [5] | mortality at 200 ppm [6] | percent effect (mortality or growth inhibition) at 200 ppm [7] | mortality at 200 ppm [8]

CCS(=O)(=O)c1cc(N(C)C(C)=O)cnc1-c1cc2c(cn1)N(CC(F)(F)C(F)(F)F)C(=O)OC2 [P18, N-[5-ethylsulfonyl-6-[2-oxo-1-(2,2,3,3,3-pentafluoropropyl)-4H-pyrido[3,4-d][1,3]oxazin-6-yl]-3-pyridyl]-N-methyl-acetamide]
≥ 80%: mortality at 200 ppm [4] | percent effect (mortality or growth inhibition) at 200 ppm [5] | mortality at 24 ppm [9] | mortality at 200 ppm [6] | mortality at 200 ppm [8]
